Earlier results in US20230416754A1, “SINA MOLECULES, METHODS OF PRODUCTION AND USES THEREOF” (PHYZAT BIOPHARMACEUTICALS, LDA, priority 2020, published 2023).
Like-named read-outs stand apart in the source and are kept apart here.

System: mice

For `CC(C)(C)NC[C@H](O)COc1nsnc1N1CCOCC1` [Timolol, timolol], the IOP (reserpine-treated animals) is listed as “did not significantly affect IOP” and the IOP (saline control treated mice) is listed as “significantly reduced IOP”.
